The record followed here is patent publication US20110039873A1, “SUBSTITUTED PYRAZOLO[1,5-a] PYRIDINE COMPOUNDS HAVING MULTI-TARGET ACTIVITY” (priority 2009, published 2011).

Data set [1] addresses T1, recombinant full length human JNK3 enzyme (Homo sapiens, UniProt P53779).
T1 construct: recombinant full length human JNK2 or JNK3 enzyme; purchased Upstate; host or cells: Sf21 cells
The data set is described as follows: JNK 3 inhibition assay (ATP depletion, luciferase). Format: biochemical. The settings on record: for IC50: 10 uM ATP, ATF2 substrate; for JNK-3 inhibition (in words): see Table 2. As for the experimental part:
In a 96-well plate, recombinant full length human JNK2 or JNK3 enzyme (40 ng) expressed in Sf21 cells (Upstate) was incubated with the substrate ATF2 (3 uM) for 1 hour in the presence of 10 uM ATP. […] The ATP levels were quantified using luciferase with luminescence read on a Victor Light 1420 luminometer. IC50 calculations were plotted using a nonlinear regression curve fit.

Data set [2] has as its target T2, recombinant human phosphodiesterase 10A1 enzyme (Homo sapiens, UniProt Q9Y233).
T2 construct: purchased BPS Biosciences; host or cells: Baculovirus infected Sf9 cells
The data set is described as follows: PDE10 inhibition assay (PDELight). It is filed as biochemical. The note with it: for IC50: 1 uM cAMP, read-out: PDE 10 Inhibition (IC50 in μM); for PDE-10 inhibition (in words): Table 2.

Data set [3] concerns the target T3, catalytic domain of phosphodiesterase 4B enzyme cloned from human brain (Homo sapiens, UniProt Q07343).
T3 construct: the catalytic domain of phosphodiesterase 4B enzyme; purchased Scottish Biomedical
The data set is described as follows: PDE4 inhibition assay (PDELight). It is filed as biochemical. The settings on record: for IC50: 5 uM cAMP, read-out: PDE 4 Inhibition (IC50 in μM). In outline: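 Human PDE4B catalytic domain (40 mU/well) incubated with 5 uM cAMP. AMP formed was converted to ATP and measured by luciferase luminescence (PDELight). IC50 derived by nonlinear regression curve fit.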

Data set [4] concerns Mouse BV-2 microglial cells. The data set is described as follows: BV-2 glial cell assay (TNF-α and MCP-1 by Luminex). Format: cell-based. The note with it: for EC50: Mus musculus, BV-2, LPS and IFN-γ activated, 20 hours; for inhibiting glial cell activation (TNF-α and/or MCP-1): Table 3. On the procedure:
Mouse BV-2 microglial cells were seeded on 96-well plates at a concentration of 3×10^4 cells/well. Cells were activated with 100 ng/mL LPS and IFN-γ (100 ng/mL) in the presence or absence of test compounds (0-30 uM). Following incubation for 20 hours, cells were spun down and supernatant collected. The supernatant was analyzed via Luminex for the presence of TNF-α and MCP-1.

Data set [5] deals with phosphorylated c-Jun (serine-73). The data set is described as follows: Phosphorylated c-JUN (6-OHDA), SH-SY5Y. Format: cell-based. The note with it: Homo sapiens, 50 uM 6-hydroxydopamine, 1.5 hours, read-out: p-cJun 6-OHDA SH-SY5Y (EC50 in μM). On the procedure:
Human SH-SY5Y neuroblastoma cells were cultured in 96-well plates with 2.5×10^4 cells/well and incubated for 48 hours. 6-hydroxydopamine was added at a concentration of 50 uM in the presence or absence of test compounds (0-30 uM) and incubated for 1.5 hours. Supernatant was discarded and cells were fixed with 4% paraformaldehyde (100 ul/well) for 20 minutes. FACE cell based ELISA assay (Active Motif) was performed specific for quantifying phosphorlyated c-Jun (serine-73).

Data set [6] shares this test system. The data set is described as follows: Phosphorylated c-JUN (A-beta), SH-SY5Y. It is filed as cell-based. The note with it: Homo sapiens, Amyloid Beta peptide 30 uM, 3 hours, read-out: p-cJun Abeta SH-SY5Y (EC50 in μM). On the procedure:
In 96-well plates either human SH-SY5Y neuroblastoma cells at 2.5×10^4 cells/well or E18 rat neuronal cells at 1.5×10^4 cells/well were seeded. […] Supernatant was discarded and cells were fixed with 4% paraformaldehyde (100 ul/well) for 20 minutes. FACE cell based ELISA assay (Active Motif) was performed specific for quantifying phosphorlyated c-Jun (serine-73).

Data set [7] concerns rat chronic constriction injury (CCI) model of neuropathic pain. The data set is described as follows: Rat chronic constriction injury (CCI) model of neuropathic pain. The note with it: IP, dose not given; 50% paw withdrawal threshold, von Frey. Format: in vivo. As for the experimental part: To induce allodynia, male Sprague-Dawley rats underwent chronic constriction injury (CCI) to the sciatic nerve as described by Bennett and Xie, Pain 1988; 33(1):87-107. The plantar surface of the hind paws was stimulated with von Frey filaments (Stoelting) to induce a withdrawal response by blinded personnel. The bending force of fiber required to induce a 50% withdrawal response was calculated following CCI surgery (pre-dosing baseline). N=5-6 allodynic rats received a single IP or oral administration of test compounds or vehicle. Two hours post-dosing, 50% paw withdrawal threshold was determined again by blinded testers using von Frey filaments. The 50% withdrawal threshold prior to CCI surgery, pre-dosing (10 days post-surgery), and 2 hours post-dosing are plotted.
For selected compounds multi-day studies were perfumed with pre-determined schedules for dosing and withdrawal threshold assessments.

Data set [8] concerns at least one of JNK 3 or JNK 2 and at least one of PDE 10 or PDE 4. The data set is described as follows: Dual inhibition (phosphodiesterase and JNK). Format: biochemical, human. The note with it: IC50 JNK 3 or JNK 2 less than about 5.00 μM and PDE 10 or PDE 4 less than about 20.0 or 30.0 μM. On the procedure:
In a 96-well plate, recombinant full length human JNK2 or JNK3 enzyme (40 ng) expressed in Sf21 cells (Upstate) was incubated with the substrate ATF2 (3 uM) for 1 hour in the presence of 10 uM ATP. The amount of ATP depletion by the JNK enzyme is measured in the presence or absence of test compounds (0-30 uM). The ATP levels were quantified using luciferase with luminescence read on a Victor Light 1420 luminometer. IC50 calculations were plotted using a nonlinear regression curve fit.
(§1) In a 96-well plate, the catalytic domain of phosphodiesterase 4B enzyme (40 mU/well) cloned from human brain (Scottish Biomedical) was combined with 5 uM cAMP substrate (Sigma). Test compounds (0-30 uM) or vehicle (0.5% DMSO) were added to the enzyme/substrate and incubated 1 hour. Using a PDELight® kit (Cambrex), the amount of AMP produced in the reaction from the hydrolysis of cAMP was quantified using PDELight AMP Detection Reagent which converts the AMP directly to ATP. The assay uses luciferase, which catalyses the formation of light from the newly formed ATP and luciferin. The luminescence was read on a Victor Light 1420 luminometer. IC50 calculations were plotted using a nonlinear regression curve fit.
as §1, with “plate, recombinant human” for “plate, the catalytic domain of”, “phosphodiesterase 10A1” for “phosphodiesterase 4B”, “enzyme (10 U/well) expressed in Baculovirus infected Sf9 cells (BPS Biosciences)” for “enzyme (40 mU/well) cloned from human brain (Scottish Biomedical)”, “with 1” for “with 5”

The target in data set [9] is T4, recombinant full length human JNK2 enzyme (Homo sapiens, UniProt P45984).
T4 construct: recombinant full length human JNK2 or JNK3 enzyme; purchased Upstate; host or cells: Sf21 cells
The data set is described as follows: JNK 2 inhibition assay (ATP depletion, luciferase). It is filed as biochemical. On the procedure:
In a 96-well plate, recombinant full length human JNK2 or JNK3 enzyme (40 ng) expressed in Sf21 cells (Upstate) was incubated with the substrate ATF2 (3 uM) for 1 hour in the presence of 10 uM ATP. […] IC50 calculations were plotted using a nonlinear regression curve fit.

Data set [10] is described as follows: Oral pharmacokinetic evaluation. It is filed as in vivo, rat. The settings on record: Sprague-Dawley rats; for half-life / AUC(0-t) / Cmax: male, rat, plasma; for half-life: Sprague-Dawley, po, 15 mg/kg; for AUC(0-t): read-out: Oral PK AUClast; for Cmax: read-out: Oral PK Cmax. As for the experimental part:
Three male Sprague-Dawley rats were dosed orally via gavage with 15 mg/kg of test compound. Serial blood samples were collected from the jugular vein at 5, 15, and 30 min, 1, 3, and 6 hours post dosing. Samples were processed for plasma via centrifugation and plasma samples were stored frozen prior to analysis via a sensitive and specific HPLC/MS/MS method. PK parameters were calculated using WinNonLin (Pharsight).

[11] abbreviates: read-out: MCP-1 BV-2 (EC50 in μM).
The mark [12] stands for this setting: read-out: TNF-a BV-2 (EC50 in μM).
The mark [13] stands for this setting: 10 uM ATP, ATF2 substrate, read-out: JNK 2 Inhibition (IC50 in μM).
Setting [14] is: 15 mg/kg oral gavage, read-out: Oral PK T½ (converted).

A word on the IC50: it is the concentration at which inhibition is half-maximal. What is called EC50 is the midpoint of the concentration-response curve. As a reminder, the Cmax is the peak of the concentration-time curve.

Read-outs that look alike come from different tables or passages of the source.

T4 sequence (P45984 whole entry): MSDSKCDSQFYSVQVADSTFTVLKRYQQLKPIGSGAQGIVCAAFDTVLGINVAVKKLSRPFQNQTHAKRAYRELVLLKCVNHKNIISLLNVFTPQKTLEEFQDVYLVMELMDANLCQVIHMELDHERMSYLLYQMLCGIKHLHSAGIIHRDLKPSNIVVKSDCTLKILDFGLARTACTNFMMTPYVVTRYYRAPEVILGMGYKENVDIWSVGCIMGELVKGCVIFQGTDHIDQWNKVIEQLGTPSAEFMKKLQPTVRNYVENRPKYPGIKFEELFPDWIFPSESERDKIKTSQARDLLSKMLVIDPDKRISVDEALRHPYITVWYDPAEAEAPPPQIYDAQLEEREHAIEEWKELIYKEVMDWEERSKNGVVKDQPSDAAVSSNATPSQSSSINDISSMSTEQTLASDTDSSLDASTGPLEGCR
T1 sequence (P53779 whole entry): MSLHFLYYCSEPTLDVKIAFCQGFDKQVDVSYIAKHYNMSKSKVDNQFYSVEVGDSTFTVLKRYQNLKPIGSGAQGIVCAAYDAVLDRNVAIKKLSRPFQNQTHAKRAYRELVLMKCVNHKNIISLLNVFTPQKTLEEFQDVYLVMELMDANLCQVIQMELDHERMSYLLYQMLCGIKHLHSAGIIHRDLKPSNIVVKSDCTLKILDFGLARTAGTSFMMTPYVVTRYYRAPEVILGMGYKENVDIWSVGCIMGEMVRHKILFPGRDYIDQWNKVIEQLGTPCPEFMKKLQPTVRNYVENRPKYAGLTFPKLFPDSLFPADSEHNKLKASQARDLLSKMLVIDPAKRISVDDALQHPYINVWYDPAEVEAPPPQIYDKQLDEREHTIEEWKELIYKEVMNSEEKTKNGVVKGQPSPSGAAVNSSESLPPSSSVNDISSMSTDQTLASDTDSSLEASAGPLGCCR
T3 sequence (Q07343 330-659 limits assumed): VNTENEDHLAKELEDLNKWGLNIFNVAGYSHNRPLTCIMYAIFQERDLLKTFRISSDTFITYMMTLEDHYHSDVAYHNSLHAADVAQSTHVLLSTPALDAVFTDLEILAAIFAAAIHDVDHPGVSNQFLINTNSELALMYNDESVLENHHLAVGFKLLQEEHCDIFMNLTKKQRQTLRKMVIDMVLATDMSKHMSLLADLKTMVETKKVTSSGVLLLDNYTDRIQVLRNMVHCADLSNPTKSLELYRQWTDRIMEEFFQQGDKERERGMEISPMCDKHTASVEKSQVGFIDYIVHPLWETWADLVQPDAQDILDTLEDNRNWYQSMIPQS
T2 sequence (Q9Y233 1-779 isoform Q9Y233-1): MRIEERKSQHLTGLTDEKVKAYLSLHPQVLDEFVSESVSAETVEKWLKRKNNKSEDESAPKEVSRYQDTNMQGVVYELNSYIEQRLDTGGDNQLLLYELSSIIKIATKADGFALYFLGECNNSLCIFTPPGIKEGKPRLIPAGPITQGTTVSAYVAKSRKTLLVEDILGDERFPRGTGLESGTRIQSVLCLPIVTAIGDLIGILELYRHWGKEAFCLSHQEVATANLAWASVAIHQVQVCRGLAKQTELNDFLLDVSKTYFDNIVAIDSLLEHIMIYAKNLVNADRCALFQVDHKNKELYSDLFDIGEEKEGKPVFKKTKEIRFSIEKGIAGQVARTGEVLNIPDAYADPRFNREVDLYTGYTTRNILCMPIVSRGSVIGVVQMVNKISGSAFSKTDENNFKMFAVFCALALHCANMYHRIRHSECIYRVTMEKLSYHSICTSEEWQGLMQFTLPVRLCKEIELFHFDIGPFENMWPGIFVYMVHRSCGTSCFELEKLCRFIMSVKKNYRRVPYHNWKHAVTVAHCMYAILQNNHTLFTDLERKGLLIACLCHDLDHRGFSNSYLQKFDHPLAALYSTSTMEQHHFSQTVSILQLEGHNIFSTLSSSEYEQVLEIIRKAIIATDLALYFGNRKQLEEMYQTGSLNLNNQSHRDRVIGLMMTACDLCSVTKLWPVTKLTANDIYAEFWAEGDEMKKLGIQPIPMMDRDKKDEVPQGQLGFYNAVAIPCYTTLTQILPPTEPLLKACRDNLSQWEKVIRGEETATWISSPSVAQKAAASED

`CC(C)CNc1nccc(-c2c(C(C)C)nn3ccccc23)n1` [AV1158, N-isobutyl-4-(2-isopropylpyrazolo[1,5-a]pyridin-3-yl)pyrimidin-2-amine]: the values for the IC50 in data set [1], in data set [2] and in [3] were 1.2 µM, 8.4 µM and 3.4 µM, respectively. Further, the “JNK-3 inhibition (in words)” value in data set [1] is “particularly effective”. The “PDE-10 inhibition (in words)” value in data set [2] was “particularly effective”. Further, in data set [3], the “PDE-4 inhibition (in words)” value is “particularly effective”. The EC50 in data set [4] (setting [11]) is 1.2 µM; in data set [4] (setting [12]), 1 µM; in data set [5] it was > 30 µM; in data set [6], > 30 µM. Further, the “inhibiting glial cell activation (TNF-α and/or MCP-1)” value (shortened to “inhibiting glial cell activation”) in data set [4] is listed as “Particularly effective”. The “IP CCI efficacy (Change in grams)” value in data set [7] amounted to 0.93 grams. Further, in [8], the “dual inhibition (phosphodiesterase and JNK)” value (from here on “dual inhibition”) was “effective dual inhibitors”.

In the case of `CC(C)Cc1nn2ccccc2c1-c1ccnc(NC2CCCC2)n1` [AV1178, N-cyclopentyl-4-(2-isobutylpyrazolo[1,5-a]pyridin-3-yl)pyrimidin-2-amine], the IC50 in data set [1] is 3.6 µM; in data set [9] (setting [13]), 2.8 µM; in [2], > 100 µM; in data set [3] it was 5.4 µM. The “PDE-4 inhibition (in words)” value in data set [3] was “particularly effective”. For the same compound, the EC50 in [6] was > 30 µM. Further, the “dual inhibition” value in data set [8] is recorded as “effective dual inhibitors”.

For the compound `Fc1cccc(-c2nn3ccccc3c2-c2ccnc(NC3CCCC3)n2)c1` [AV1180, N-cyclopentyl-4-(2-(3-fluorophenyl)pyrazolo[1,5-a]pyridin-3-yl)pyrimidin-2-amine], the IC50 in data set [1] came out at 0.3 µM; in data set [2] it was 53.5 µM; in data set [3], 16.4 µM. In addition, in data set [1], the “JNK-3 inhibition (in words)” value is “particularly effective”. In addition, the EC50 is 1.6 µM in data set [4] (setting [11]), 0.04 µM in [4] (setting [12]), > 30 µM in data set [5] and 4.1 µM in data set [6]. In addition, the “inhibiting glial cell activation” value in data set [4] is on record as “Particularly effective”. Further, the “half life following oral dosing (in words)” value in data set [10] (oral) is “particularly prolonged half lives”. The half-life in data set [10] (setting [14]) was 1.8 h. In data set [10] (15 mg/kg oral gavage), the AUC(0-t) came to 160 ng·h/mL. Also, the Cmax in data set [10] (15 mg/kg oral gavage) was determined as 58 ng/mL. Moreover, the “IP CCI efficacy (Change in grams)” value in data set [7] stood at 0 grams. Besides, in data set [8], the “dual inhibition” value is “effective dual inhibitors”.

With `Cc1cccc2c(-c3ccnc(NC(C)C)n3)cnn12` [AV1183, N-isopropyl-4-(7-methylpyrazolo[1,5-a]pyridin-3-yl)pyrimidin-2-amine], the IC50 worked out at 0.2 µM in data set [1], 35 µM in data set [2] and 6.2 µM in data set [3]. The “JNK-3 inhibition (in words)” value in data set [1] was “particularly effective”. Moreover, in data set [3], the “PDE-4 inhibition (in words)” value is listed as “particularly effective”. Also, the EC50 in [4] (setting [11]) was found to be 1.2 µM; in [4] (setting [12]), 1.1 µM; in data set [5], 0.3 µM; in data set [6], 5.4 µM. Further, the “inhibiting glial cell activation” value in [4] is “Particularly effective”. For the same compound, in data set [10] (setting [14]), the half-life is 1.1 h. For the same compound, the AUC(0-t) in [10] (15 mg/kg oral gavage) was determined as 35 ng·h/mL. Besides, in data set [10] (15 mg/kg oral gavage), the Cmax came out at 56 ng/mL. Besides, the “IP CCI efficacy (Change in grams)” value in data set [7] was 0.3 grams. Also, in [8], the “dual inhibition” value is “effective dual inhibitors”.

Consider `c1ccn2nc(C3CC3)c(-c3ccnc(NC4CCCC4)n3)c2c1` [AV1198, N-cyclopentyl-4-(2-cyclopropylpyrazolo[1,5-a]pyridin-3-yl)pyrimidin-2-amine], for which the IC50 in data set [1] was 2.8 µM; in [9] (setting [13]) it was 1.4 µM; in data set [9] (read-out: IC50 value based upon a JNK 2 inhibition assay (range given)) it was 0.01 to 2 µM; in data set [2] it was 6.8 µM; in [3] it was 3.4 µM. Moreover, the “JNK-3 inhibition (in words)” value in data set [1] was “particularly effective”. The “PDE-10 inhibition (in words)” value in data set [2] is listed as “particularly effective”. In data set [3], the “PDE-4 inhibition (in words)” value is “particularly effective”. Moreover, the EC50 was determined as 0.3 µM in data set [4] (setting [11]) and 3.3 µM in [4] (setting [12]). Further, the “inhibiting glial cell activation” value in [4] is “Particularly effective”. In addition, in data set [10] (oral), the “half life following oral dosing (in words)” value is listed as “particularly prolonged half lives”. For the same compound, the half-life in [10] (setting [14]) was 3.6 h; in [10] (oral, read-out: half life following oral dosing), > 3 h. Further, the AUC(0-t) in data set [10] (15 mg/kg oral gavage) was 79 ng·h/mL. In data set [10] (15 mg/kg oral gavage), the Cmax was 30 ng/mL. For the same compound, the “IP CCI efficacy (Change in grams)” value in [7] was “[0] grams”. In data set [8], the “dual inhibition” value is reported as “effective dual inhibitors”.
